Legend:
[1] = system: cofilin (pS3) in AR42J cells; assay: cofilin activation (pS3 cofilin Western blot) in AR42J cells; assay type: cell-based; settings: Cytochalasin D 10 µM or Paclitaxel 5 µM, 4 h; A71378 30 nM 10 min
Method: (§1) CCK1 receptor transfected Panc-1 (CCK1-R/Panc-1) cells ([Berna et al., 2009]) and AR42J cells, were cultured in DMEM supplemented with 10% FBS and 1% penicillin/streptomycin and in RPMI supplemented with 10% FBS and 1% penicillin/streptomycin, respectively; and split 1:10 weekly with trypsin/EDTA, after washing in PBS. Finally, cells were seeded in 6-well plate and serum starved overnight, until they were 80% confluent. Cells were incubated at 37°C in 5% CO2/95% air. AR42J cells were treated with 100 nM dexamethasone for 72°h, which stimulates their differentiation into exocrine cells ([Logsdon, 1986]).
(§2) Western blotting and immunoprecipitation were performed as described previously ([Ramos-Alvarez and Jensen, 2018]). Whole cell lysates were subjected to SDS-PAGE using 4%–20% Tris–Glycine gels. […] The intensity of the protein bands was measured using GeneTools software from Syngene, which were assessed in the linear detection range.
(§3) FIGURE 12 Effect of two cofilin inhibitors, Cytochalasin D or Paclitaxel (A, B), or cofilin siRNA (C), on the ability of A71378 (30 and 10 nM) to alter activation of cofilin (A) and p44/42 (B, C). […] Western blots were analyzed using anti-pS3 cofilin, anti-pT202/Y204 p44/42 and Tubulin. Bands were visualized using chemiluminescence and quantified by densitometry. […] Results are expressed as % of basal stimulation of the control group. […]

[2] = system: p44/42 MAPK in AR42J cells; assay: p44/42 MAPK activation (pT202/Y204 Western blot) in AR42J cells; assay type: cell-based; settings: Cytochalasin D 10 µM or Paclitaxel 5 µM, 4 h; A71378 30 nM 10 min
Method: as §1
as §2, with “range. […]” for “range.”
as §3

[3] = system: AR42J cells; assay: amylase release from AR42J cells (Phadebas); assay type: cell-based; settings: Cytochalasin D 10 µM or Paclitaxel 5 µM; for inhibition of CCK-8/A71378-induced amylase secretion: 4 h, CCK-8 and A71378 (0.03 and 1 nM), 30 min; for effect on basal amylase release: AR42J (Figure 13B)
Method: as §1
For siRNA-mediated knockdown, 5 × 10^5 CCK1-R/Panc-1 or AR42J cells were seeded into 6-well plates and incubated for 24 h. Cells were then transfected with 10 nM of siRNA against human SSH1 siRNA against human cofilin (Dharmacon. Lafayette, CO) in Opti-MEM medium for 48 h using Lipofectamine according to the manufacture’s instruction.
Amylase release was performed as described previously ([Sato et al., 1989]; [Ramos-Alvarez and Jensen, 2018]). Amylase activity was determined after 30 min incubation using the Phadebas reagent and was expressed as percentage of the total cellular amylase released into the extracellular medium during the incubation ([Ramos-Alvarez and Jensen, 2018]).
FIGURE 13 Effect of two cofilin inhibitors, Cytochalasin D or Paclitaxel, (A, B), or Cofilin siRNA (C), on the ability of CCK/TPA/A71378-stimulated amylase release form pancreatic acini (A) or AR42J cells (B, C). In (A, B) pancreatic acini and AR42J cells were incubated in the absence or presence of Cytochalasin D (10 µM) or Paclitaxel (5 µM) for 4 h and then incubated with no additions (control) or CCK-8 (0.03, 0.3, 1 and 100 nM), TPA (1 µM) or A71378 (0.03 and 1 nM) for 30 min and then lysed. In (B, C) AR42J cells were treated with Dexamethasone (100 nM) for 72 h, and in (C) AR42J cells were transfected with siRNA Non-targeting Control and siRNA against cofilin for 48 h, and then incubated with no addition (control) or CCK-8 (0.03 and 1 nM) and A71378 (0.03 and 1 nM) for 30 min. Amylase release, expressed as percent of cellular total amylase secreted, was determined after 30 min incubation. Means ± S.E. of at least 3 independent experiments. N.S., No significant.

[4] = system: SSH1 (pS978) in pancreatic acini; assay: SSH1 phosphorylation (pS978 SSH1 Western blot) in isolated rat pancreatic acini; assay type: cell-based; settings: for SSH1 dephosphorylation (activation) at short incubation: 0.5 min and 1.5 min, data not shown; for SSH1 phosphorylation (i.e., deactivation), maximum increment: 30 min
Method: Pancreatic acini preparations were obtained by collagenase digestion as previously described ([Bissonnette et al., 1984]; [Sato et al., 1989]; [Ramos-Alvarez and Jensen, 2018]). […] Isolated acini and CCK1-R/Panc-1 cells (M&M 2.2.1) were also preincubated with two SSH1 inhibitors, D3 (25 μM, 1 h) ([Li et al., 2015]) or SE (50 μM, 3 h for acini; 24 h for CCK1-R/Panc-1 cells) ([Lee et al., 2017]). […] Cells were lysed in lysis buffer (50 mM Tris/HCl pH 7.5, 150 mM NaCl, 1% Triton X-100, 1% deoxycholate, 0.1% sodium azide, 1 mM EGTA, 0.4 mM EDTA, 0.2 mM sodium orthovanadate, 1 mM PMSF, and one protease inhibitor tablet per 10 mL). After sonication, lysates were centrifuged at 10,000×g for 15 min at 4°C and protein concentration was measured using the Bio-Rad protein assay reagent. Finally, cells were processed as below for Western blotting.
Western blotting and immunoprecipitation were performed as described previously ([Ramos-Alvarez and Jensen, 2018]). Whole cell lysates were subjected to SDS-PAGE using 4%–20% Tris–Glycine gels. […] Finally, membranes were then washed again twice in blocking buffer for 4 min, twice in washing buffer for 4 min, incubated for 4 min with chemiluminescence detection reagents. The intensity of the protein bands was measured using GeneTools software from Syngene, which were assessed in the linear detection range.
FIGURE 2 Time course of phosphorylation of Lim kinase (LIMK) (A), cofilin (B) and Slingshot 1 phosphatase (SSH1) (C) induced by CCK-8 and TPA. Isolated pancreatic acini were incubated with either no addition (control), CCK-8 (0.3 and 100 nM) or TPA (1 µM) for the indicated periods of time and then lysed. Western blots were analyzed using anti-pT508 LIMK, anti-pS3 cofilin and anti-pS978 SSH1, which […] the activation states of LIMK, cofilin and SSH1. Bands were visualized using chemiluminescence and quantified by densitometry. Top: Results of a representative blot of three independent experiments are shown. Bottom: Means ± S.E. of at least 3 independent experiments. Results are expressed as % of basal stimulation of the control group. *, p < 0.05 compared to the control group.

[5] = system: actin-cofilin interaction in fibroblasts; settings: ref Shoji et al., 2012; cited from earlier work
[6] = system: epithelial cells; settings: ref Matsubayashi et al., 2004; cited from earlier work

| Molecule | inhibition of CCK1-R-induced activation of cofilin in AR42J cells [1] | decrease of A71378-mediated activation of p44/42 [2] [%] | inhibition of CCK-8/A71378-induced amylase secretion [3] | effect on basal amylase release [3] | SSH1 dephosphorylation (activation) at short incubation [4] | SSH1 phosphorylation (i.e., deactivation), maximum increment ([4]; CCK-8 100 nM) [%] | SSH1 phosphorylation (i.e., deactivation), maximum increment ([4]; TPA 1 µM) [%] | effect on interaction between actin and cofilin [5] | effect on cell migration [6] |
| --- | --- | --- | --- | --- | --- | --- | --- | --- | --- |
| CC(=O)O[C@H]1C(=O)[C@@]2(C)[C@H]([C@H](OC(=O)c3ccccc3)[C@]3(O)C[C@H](OC(=O)[C@H](O)[C@@H](NC(=O)c4ccccc4)c4ccccc4)C(C)=C1C3(C)C)[C@]1(OC(C)=O)CO[C@@H]1C[C@@H]2O [Paclitaxel] | completely inhibited | 36 | completely inhibited | Neither of these two cofilin inhibitors influenced basal amylase release |  |  |  |  |  |
| COOH-terminal octapeptide of cholecystokinin [CCK-8] |  |  |  |  | no dephosphorylation of SSH1 (activation) was seen | 162 |  |  |  |
| CCCCCCCCCCCCCC(=O)O[C@@H]1[C@@H](C)[C@@]2(O)[C@@H](C=C(CO)C[C@]3(O)C(=O)C(C)=C[C@@H]23)[C@H]2C(C)(C)[C@]12OC(C)=O [TPA, 12-O-tetradecanoylphobol-13-acetate] |  |  |  |  | no dephosphorylation of SSH1 (activation) was seen |  | 151 |  |  |
| C=C1[C@@H](C)[C@H]2[C@H](Cc3ccccc3)NC(=O)[C@]23[C@H](OC(C)=O)/C=C/[C@@](C)(O)C(=O)[C@@H](C)C/C=C/[C@H]3[C@@H]1O [Cytochalasin D] | completely inhibited | 34 | completely inhibited | Neither of these two cofilin inhibitors influenced basal amylase release |  |  |  | inhibits the interaction between actin and cofilin | completely blocked cell migration |
